Data as given in patent US20110262497A1, “NOVEL EZETIMIBE FORMULATIONS” (LEK Pharmaceuticals D.D., priority 2008, published 2011).

Assay: solubility of ezetimibe in water
Assay type: physicochemical

solubility: < 10 µg/mL
SMILES: O=C1[C@H](CC[C@H](O)c2ccc(F)cc2)[C@@H](c2ccc(O)cc2)N1c1ccc(F)cc1 [ezetimibe, 1-(4-fluorophenyl)-3(R)-[3-(4-fluorophenyl)-3(S)-hydroxypropyl]-4(S)-(4-hydroxyphenyl)-2-azetidinone]
